Measured values reported in patent publication US11014917B2, “5-fluoro-c-(aryl or heterocyclyl)-glycoside derivatives useful as dual SGLT1 / SGLT2 modulators” (Janssen Pharmaceutica NV, priority 2017, dated 2021).

Key:
human SGLT1 = molecular target: T1, human SGLT1 (Homo sapiens, UniProt P13866); assay: SGLT1 assay: Na-dependent 14C-AMG uptake in CHO-K1 cells stably expressing human SGLT1; assay type: cell-based; conditions: for SGLT1 %-inhibition: @ 0.3 μM; for IC50: average if tested more than once
T1 construct: expressed in transfected cells
T1 sequence (P13866 1-664): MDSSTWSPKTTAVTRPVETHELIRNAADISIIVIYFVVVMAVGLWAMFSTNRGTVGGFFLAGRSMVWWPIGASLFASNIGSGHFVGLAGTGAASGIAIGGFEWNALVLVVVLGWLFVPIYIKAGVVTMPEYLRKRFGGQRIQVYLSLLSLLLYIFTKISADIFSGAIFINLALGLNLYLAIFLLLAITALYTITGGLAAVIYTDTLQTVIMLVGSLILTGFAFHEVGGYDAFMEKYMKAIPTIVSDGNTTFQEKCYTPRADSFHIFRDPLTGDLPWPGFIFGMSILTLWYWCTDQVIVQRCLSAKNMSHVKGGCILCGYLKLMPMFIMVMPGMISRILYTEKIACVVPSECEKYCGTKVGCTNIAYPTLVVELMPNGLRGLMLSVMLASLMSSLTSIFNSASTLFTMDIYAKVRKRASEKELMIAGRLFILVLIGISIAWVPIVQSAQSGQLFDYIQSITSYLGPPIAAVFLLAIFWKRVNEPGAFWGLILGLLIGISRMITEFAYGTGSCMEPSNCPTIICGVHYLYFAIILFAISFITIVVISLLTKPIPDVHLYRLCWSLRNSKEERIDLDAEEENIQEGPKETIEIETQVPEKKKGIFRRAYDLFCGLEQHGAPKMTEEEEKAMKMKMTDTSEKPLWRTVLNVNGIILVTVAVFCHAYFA
Description: (§1) The ability of the compounds of formula (I) of the present invention to treat an SGLT-mediated condition was determined using the following procedures:
(§2) SGLT1 and SGLT2 were cloned in form of cDNA from human small intestine (Genbank M24847), and from human kidney (Genbank M95549), respectively. Subsequently, each full cDNA was subcloned into pcDNA with each construct's integrity verified through follow-on sequencing. To generate CHO-K1 cells that stably express human SGLT1 or human SGLT2, CHO-K1 cells were transfected using DMRIE-C reagent (Life Technologies, Gaithersburg, Md.). Transfected cells were then selected in the presence of 500 μg/ml of the Geneticin (G418 Cellgro Catalog No. 30234-Cl)
(§3) Individual clones were then characterized using the following cell-based assay for sodium-dependent glucose transport:
(§4) Inhibition of SGLT1 and SGLT2 activity was assessed in CHO K1 cells stably expressing either human SGLT1 or SGLT2, using the SGLT specific glucose analog methyl-glucopyranoside (Sigma Catalog No. M-9376). Cells were plated (45,000 cells/well) in white wall 96-well plates (COSTAR, Cat #3903) for 24 hours in growth medium, then a final concentration of 10 mM Na-Butyrate (ALDRICH Cat #30341-0) was added. The cells were incubated for 24 hours. On the day of the assay, cells were rinsed and treated with test compounds (at concentrations of 0.001 μM to 10 μM) in assay buffer (50 mM HEPES, 20 mM Tris base, 5 mM KCl, 1 mM MgCl2, 1 mM CaCl2 and 137 mM NaCl, pH 7.4) for 10 minutes. Cells were then incubated with ^14C-a-methyl-d-glucopyranoside (AMG, Amersham Catalog No. CFB 76), using 0.07 μCi per well in 500 μM AMG final concentration. The cells were incubated for 2 hours at 37° C. with 5% CO2 and washed two times with ice-cold Phosphate Buffer Solution (Cellgro Catalog No. 21030-CV). The cells were then solubilized by adding 60 μl of MICROSCINT™20 and the Na-dependent ^14C-AMG uptake was quantified by measuring radioactivity. Plates were counted in a TopCount (Packard, Meriden, Conn.)
(§5) Representative compounds of the present invention were tested according to the procedures as described in Biological Example 1 and 2 above, with results as listed in Table 5, below. Results are reported as the %-inhibition or IC50 value. Variability for the functional assay was typically within 20%.

human SGLT2 = molecular target: T2, human SGLT2 (Homo sapiens, UniProt P31639); assay: SGLT2 assay: Na-dependent 14C-AMG uptake in CHO-K1 cells stably expressing human SGLT2; assay type: cell-based; conditions: for SGLT2 %-inhibition: @ 0.3 μM; for IC50: average if tested more than once
T2 construct: expressed in transfected cells
T2 sequence (P31639 1-672): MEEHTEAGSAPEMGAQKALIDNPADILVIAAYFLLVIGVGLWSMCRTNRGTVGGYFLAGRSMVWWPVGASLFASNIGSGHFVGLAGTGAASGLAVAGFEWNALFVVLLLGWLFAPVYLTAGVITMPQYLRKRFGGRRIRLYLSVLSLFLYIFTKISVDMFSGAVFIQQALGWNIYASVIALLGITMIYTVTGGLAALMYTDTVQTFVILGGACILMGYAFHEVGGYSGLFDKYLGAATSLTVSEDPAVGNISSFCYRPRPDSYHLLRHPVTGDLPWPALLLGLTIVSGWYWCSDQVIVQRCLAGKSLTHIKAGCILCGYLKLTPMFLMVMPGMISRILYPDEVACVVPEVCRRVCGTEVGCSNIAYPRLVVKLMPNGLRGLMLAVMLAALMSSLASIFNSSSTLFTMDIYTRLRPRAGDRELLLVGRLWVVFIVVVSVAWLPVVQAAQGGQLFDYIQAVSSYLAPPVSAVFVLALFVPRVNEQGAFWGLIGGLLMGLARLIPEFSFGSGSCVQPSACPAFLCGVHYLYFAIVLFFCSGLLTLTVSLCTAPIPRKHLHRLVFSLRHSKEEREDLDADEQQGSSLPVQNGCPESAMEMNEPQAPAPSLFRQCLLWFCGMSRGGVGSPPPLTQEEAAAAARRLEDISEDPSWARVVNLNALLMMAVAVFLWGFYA
Description: as §1, §2, §3, §4, §5

Row | SGLT1 %-inhibition (human SGLT1) [% @ 0.3 μM] | SGLT2 %-inhibition (human SGLT2) [% @ 0.3 μM] | IC50 (human SGLT1) [nM] | IC50 (human SGLT2) [nM] | Compound
1 | 45.3 | 62.7 |  |  | CC1COc2c(Cc3ccc4c(c3)OCCO4)cc(C3OC(CO)C(F)C(O)C3O)cc21 (mixture of isomers) [Compound 95]
2 |  |  | 15 | 9 | COc1cc(O)c(C2OC(C(C)O)C(F)C(O)C2O)cc1Cc1cc2ccccc2s1 (single isomer, unassigned) [Compound 52]
3 |  |  | 104 | 26 | COc1cc(O)c(C2OC(C(C)O)C(F)C(O)C2O)cc1Cc1cc2ccccc2s1 (single isomer, unassigned) [Compound 53]
4 | 76.4 | 30.0 |  |  | COc1cc(OCC#N)c([C@@H]2O[C@H](C(C)O)[C@@H](F)[C@H](O)[C@H]2O)cc1Cc1cc2ccccc2s1 (single isomer, unassigned) [Compound 71]
5 |  |  | 127 | 24 | COc1cc(OC)c(C2OC(C(C)O)C(F)C(O)C2O)cc1Cc1cc2ccccc2s1 (single isomer, unassigned) [Compound 72]
6 |  | 15.3 |  |  | CC(C)Oc1cc(O)c([C@@H]2O[C@H](CO)[C@@H](F)[C@H](O)[C@H]2O)cc1Cc1cc2ccccc2s1 [Compound 32]

More lines, now with the values behind:

Row | Compound | SGLT1 %-inhibition (human SGLT1) [% @ 0.3 μM] | SGLT2 %-inhibition (human SGLT2) [% @ 0.3 μM] | IC50 (human SGLT1) [nM] | IC50 (human SGLT2) [nM]
7 | COc1cc(O)c([C@@H]2O[C@H](CO)[C@@H](F)[C@H](O)[C@H]2O)cc1Cc1cc2ccccc2s1 [Compound 2, (2S,3R,4R,5S,6R)-2-(5-(benzo[b]thiophen-2-ylmethyl)-2-hydroxy-4-methoxyphenyl)-5-fluoro-6-(hydroxymethyl)tetrahydro-2H-pyran-3,4-diol] |  |  | 9 | 8
8 | Cc1cc(O)c([C@@H]2O[C@H](CO)[C@@H](F)[C@H](O)[C@H]2O)cc1Cc1cc2ccccc2s1 [Compound 4] |  |  | 14 | 4
9 | OC[C@H]1O[C@@H](c2cc(Cc3cc4ccccc4s3)c(Cl)cc2O)[C@H](O)[C@@H](O)[C@@H]1F [Compound 7] |  |  | 18 | 6
10 | COC[C@H]1O[C@@H](c2cc(Cc3cc4ccccc4s3)c(OC)cc2O)[C@H](O)[C@@H](O)[C@@H]1F [Compound 9, (2S,3R,4R,5S,6R)-2-[5-(1-benzothiophen-2-ylmethyl)-2-hydroxy-4-methoxyphenyl]-5-fluoro-6-(methoxymethyl)oxane-3,4-diol] |  |  | 126 | 107
11 | COc1cc(O)c([C@@H]2O[C@H](C)[C@@H](F)[C@H](O)[C@H]2O)cc1Cc1cc2ccccc2s1 [Compound 10] |  |  | 85 | 82
12 | COc1cc(O)c([C@@H]2O[C@H](CF)[C@@H](F)[C@H](O)[C@H]2O)cc1Cc1cc2ccccc2s1 [Compound 11, (2S,3R,4R,5S,6R)-2-[5-(1-benzothiophen-2-ylmethyl)-2-hydroxy-4-methoxyphenyl]-5-fluoro-6-(fluoromethyl)oxane-3,4-diol] |  |  | 91 | 59
13 | COc1cc(OC)c([C@@H]2O[C@H](CO)[C@@H](F)[C@H](O)[C@H]2O)cc1Cc1cc2ccccc2s1 [Compound 12] |  |  | 100 | 24
14 | Cc1c(Cc2cc3ccccc3s2)cc([C@@H]2O[C@H](CO)[C@@H](F)[C@H](O)[C@H]2O)c(O)c1C [Compound 13] |  |  | 15 | 7
15 | COc1c(Cc2cc3ccccc3s2)cc([C@@H]2O[C@H](CO)[C@@H](F)[C@H](O)[C@H]2O)c(O)c1C [Compound 14] | 69.3 | 36.0 |  | 
16 | COc1c(Cc2cc3ccccc3s2)cc([C@@H]2O[C@H](CO)[C@@H](F)[C@H](O)[C@H]2O)c(OC)c1C [Compound 15] |  |  | 100 | 68
17 | COc1cc(O)c([C@@H]2O[C@H](CN)[C@@H](F)[C@H](O)[C@H]2O)cc1Cc1cc2ccccc2s1 [Compound 28] |  | 50.3 |  | 
18 | CCOc1cc(O)c([C@@H]2O[C@H](CO)[C@@H](F)[C@H](O)[C@H]2O)cc1Cc1cc2ccccc2s1 [Compound 30] |  | 51.0 |  | 
